Eight molecules from ChEMBL document CHEMBL1201862, “PubChem BioAssay data set” (2004) can be followed below.

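Method: 48-hour compound exposure of cells in 96-well plates, five concentrations, linear interpolation of endpoints. GI50 is the concentration that inhibits growth by half.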 Active and inactive are the calls of the source. Cut-off read from the data, not from the text of the source: active = GI50 up to about 1.1 µM and inactive = higher.

Some test systems named below: HL-60; HOP-92; HT-29; SN12C; OVCAR-4; HCT-116; LOX IMVI; NCI/ADR-RES; UACC-62; OVCAR-5; RXF 393; U-251; HOP-18; SF-539; SNB-75; OVCAR-3; SF-268; M14; IGROV-1; A498.
Assay in all cases: DTP human tumour cell line panel, 48 h

By GI50 is commonly meant the concentration giving 50% growth inhibition. Consider `O=C1c2ccccc2C(=O)c2c1ccc1conc21`, for which the GI50 is 0.402 µM (active) in the assay on HL-60; 1.07 µM (active) with HOP-92; 4.37 µM (inactive) in the assay with HT-29; 1.87 µM (inactive) in the assay with SN12C; 0.7 µM (active) in the assay with OVCAR-4; 1.52 µM (inactive) with HCT-116. The GI50 in the assay on LOX IMVI is 0.469 µM (active); with NCI/ADR-RES it was 0.649 µM (active); in the assay on UACC-62 it was 2.45 µM (inactive); in the assay on OVCAR-5 it was 3 µM (inactive); in the assay on RXF 393, 3.08 µM (inactive); in the assay on U-251 it was 1.62 µM (inactive). The GI50 in the assay with HOP-18 was 13.4 µM (inactive); in the assay with SF-539 it was 1.95 µM (inactive); in the assay on SNB-75 it was 7.59 µM (inactive); in the assay with OVCAR-3 it was 0.296 µM (active); with SF-268, 2.56 µM (inactive); in the assay on M14, 2.26 µM (inactive). In addition, the GI50 in the assay with IGROV-1 was 2.98 µM (inactive); in the assay on A498, 11.9 µM (inactive).

For `O=C1c2ccccc2C2(O)Nc3cc(O)ccc3C12O` (centres undefined), the GI50 in the assay with HL-60, in the assay with HOP-92, in the assay on HT-29, with SN12C, with OVCAR-4 and in the assay on HCT-116 was > 100 µM (inactive) each time. The GI50 in the assay on LOX IMVI, in the assay with UACC-62, in the assay on OVCAR-5, in the assay on RXF 393, in the assay on U-251 and in the assay with HOP-18 was > 100 µM (inactive) in each case. Further, the GI50 in the assay with SF-539, in the assay on SNB-75, in the assay on OVCAR-3, with SF-268, in the assay on M14 and in the assay on IGROV-1 was > 100 µM (inactive) throughout. In addition, in the assay on A498, the GI50 is > 100 µM (inactive).

As for `O=C1C2c3[nH]c4ccccc4c3C3CCCCCC3C2C(=O)N1c1ccccc1` (centres undefined), the GI50 in the assay on HL-60 was > 45.6 µM (inactive); in the assay with HOP-92, 30.1 µM (inactive); in the assay on HT-29, > 57.7 µM (inactive); in the assay with SN12C, 9.71 µM (inactive); in the assay with OVCAR-4 it was 3.09 µM (inactive); in the assay with HCT-116, 11.2 µM (inactive). Also, the GI50 in the assay with LOX IMVI was 14.9 µM (inactive); in the assay on UACC-62, > 63.7 µM (inactive); in the assay on OVCAR-5 it was > 100 µM (inactive); in the assay with RXF 393, 12.4 µM (inactive); with U-251 it was 18.7 µM (inactive); with HOP-18, 19.5 µM (inactive). The GI50 in the assay with SF-539 is 14.4 µM (inactive); in the assay on SNB-75, 3.44 µM (inactive); in the assay on OVCAR-3, 16.3 µM (inactive); with SF-268, 39.2 µM (inactive); in the assay on M14 it was 15.9 µM (inactive); with IGROV-1 it was 21.8 µM (inactive). In addition, the GI50 in the assay with A498 was 30.8 µM (inactive).

Turning to `CCCNCC(=O)O[C@]1(CC)C(=O)OCc2c1cc1n(c2=O)Cc2cc3ccccc3nc2-1`, the 50% growth inhibitory concentration (GI50) in the assay on HL-60 is < 0.01 µM (active); in the assay on HOP-92, 0.325 µM (active); in the assay with HT-29 it was 0.274 µM (active); in the assay with SN12C, < 0.01 µM (active); in the assay with OVCAR-4 it was 0.69 µM (active); in the assay with HCT-116 it was 0.164 µM (active). Moreover, the GI50 in the assay on LOX IMVI was 0.0134 µM (active); in the assay on UACC-62, < 0.01 µM (active); in the assay on OVCAR-5, 0.129 µM (active); in the assay with RXF 393, 0.0397 µM (active); with U-251, < 0.01 µM (active); with HOP-18 it was 0.123 µM (active). For the same molecule, the GI50 with SF-539 is 0.0118 µM (active); in the assay on SNB-75, 0.0429 µM (active); in the assay with OVCAR-3 it was 0.457 µM (active); in the assay with SF-268, < 0.01 µM (active); in the assay with M14, 0.0681 µM (active); in the assay with IGROV-1 it was 0.325 µM (active). Besides, the GI50 in the assay on A498 is 0.163 µM (active).

In the case of `CC(=O)OCc1cc(OC(C)=O)cnc1COC(C)=O`, the GI50 in the assay with HL-60, with HOP-92, with HT-29, with SN12C, with OVCAR-4 and with HCT-116 was > 100 µM (inactive) in each case. Further, the GI50 in the assay with LOX IMVI, with UACC-62, with OVCAR-5, with RXF 393, in the assay on U-251 and with HOP-18 was > 100 µM (inactive) each time. Further, the GI50 in the assay on SF-539, in the assay with SNB-75, in the assay on OVCAR-3, in the assay on SF-268, in the assay with M14 and in the assay on IGROV-1 was > 100 µM (inactive) each time. Also, the GI50 in the assay on A498 was > 100 µM (inactive).

With `O=C(O)CSc1nnc(/C=C/c2ccccc2)[nH]1`, the GI50 in the assay on HL-60, in the assay on HOP-92, in the assay with HT-29, in the assay with SN12C, in the assay on OVCAR-4 and with HCT-116 was > 100 µM (inactive) in each case. In addition, the GI50 with LOX IMVI was > 61.2 µM (inactive); in the assay on UACC-62, > 100 µM (inactive); in the assay on OVCAR-5, > 100 µM (inactive); in the assay with RXF 393 it was > 100 µM (inactive); with U-251, > 100 µM (inactive); in the assay on HOP-18, > 92.7 µM (inactive). Moreover, the GI50 in the assay on SF-539, in the assay with SNB-75, in the assay on OVCAR-3, in the assay on SF-268, in the assay with M14 and in the assay with IGROV-1 was > 100 µM (inactive) each time. For the same molecule, the GI50 in the assay on A498 is > 100 µM (inactive).

Consider `CCOc1ccc(/C=C/c2cc(OC)c(OC)c(OC)c2)cc1`, for which the GI50 was 0.509 µM (active) with HL-60; 10.8 µM (inactive) in the assay with HOP-92; 0.653 µM (active) with HT-29; 4.02 µM (inactive) in the assay on SN12C; 11.7 µM (inactive) in the assay with OVCAR-4; 0.561 µM (active) in the assay with HCT-116. In addition, the GI50 was 1.59 µM (inactive) with LOX IMVI; 0.385 µM (active) in the assay with UACC-62; > 100 µM (inactive) in the assay with OVCAR-5; 0.347 µM (active) in the assay on RXF 393; 0.867 µM (active) with U-251; > 75.2 µM (inactive) in the assay on HOP-18. Besides, the GI50 was 0.456 µM (active) with SF-539; 0.701 µM (active) in the assay on SNB-75; 0.596 µM (active) in the assay with OVCAR-3; 2.18 µM (inactive) in the assay on SF-268; 0.841 µM (active) with M14; 2.19 µM (inactive) in the assay with IGROV-1. The GI50 in the assay on A498 is 0.439 µM (active).

Turning to `CC(C)[C@](O)(C(=O)OCC1=CC[N+]2([O-])CC[C@@H](O)[C@@H]12)[C@H](C)O` (some centres undefined) [INDICINE N-OXIDE], the GI50 in the assay on HL-60 was 3230 µM (inactive); with HOP-92, > 9730 µM (inactive); with HT-29, > 10000 µM (inactive); in the assay on SN12C, 8870 µM (inactive); in the assay on OVCAR-4 it was > 10000 µM (inactive); in the assay with HCT-116, > 10000 µM (inactive). Besides, the GI50 in the assay on LOX IMVI is > 7800 µM (inactive); with NCI/ADR-RES, > 10000 µM (inactive); in the assay on UACC-62, 7210 µM (inactive); with OVCAR-5, > 10000 µM (inactive); in the assay on RXF 393 it was 7460 µM (inactive); in the assay with U-251, > 8570 µM (inactive). Moreover, the GI50 in the assay on HOP-18 was > 10000 µM (inactive); with SF-539, > 9080 µM (inactive); in the assay with SNB-75, > 9750 µM (inactive); in the assay with OVCAR-3 it was 9910 µM (inactive); with SF-268, > 9930 µM (inactive); in the assay with M14 it was > 10000 µM (inactive). The GI50 was > 9330 µM (inactive) in the assay on IGROV-1 and 8970 µM (inactive) in the assay on A498.
